Earlier results on 1 substance are cited in patent US12623013B2, “Compounds, systems, and techniques for removal of peripheral amyloid beta peptide with albumin binding competitors” (Fresenius Medical Care Holdings, Inc., priority 2021, dated 2026).

This series deals with human albumin (Homo sapiens, UniProt P02768). The conditions noted are these: read-out: binding constant to human albumin.
Chain of human albumin (P02768 25-609): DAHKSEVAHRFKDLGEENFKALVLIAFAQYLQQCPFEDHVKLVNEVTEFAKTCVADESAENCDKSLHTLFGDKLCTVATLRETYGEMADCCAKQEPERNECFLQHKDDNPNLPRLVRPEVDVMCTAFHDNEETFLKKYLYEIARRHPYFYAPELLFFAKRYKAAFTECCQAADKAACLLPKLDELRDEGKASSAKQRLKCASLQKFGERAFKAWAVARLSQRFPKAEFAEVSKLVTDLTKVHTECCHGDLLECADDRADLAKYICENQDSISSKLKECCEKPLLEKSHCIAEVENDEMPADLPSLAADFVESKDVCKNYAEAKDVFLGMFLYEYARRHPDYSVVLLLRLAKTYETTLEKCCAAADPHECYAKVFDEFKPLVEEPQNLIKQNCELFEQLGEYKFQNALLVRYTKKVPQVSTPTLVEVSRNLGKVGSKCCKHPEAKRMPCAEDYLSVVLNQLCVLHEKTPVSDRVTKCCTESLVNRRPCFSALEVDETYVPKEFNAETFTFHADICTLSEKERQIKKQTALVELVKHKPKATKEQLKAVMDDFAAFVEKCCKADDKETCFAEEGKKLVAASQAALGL

In the case of Ac-WWEQDRDWDFDVFGGGTP-NH2 [89D03], the Kd was roughly 15 nM.
